Assay [1] has as its system Normal human adipocytes. The experiment in a line: Lipogenesis in adipocytes ([14C]-acetate incorporation). As to conditions: 20 μM of cerulenin. It counts as cell-based. How it is done: Normal human adipocytes were incubated for 1 hour in the presence of the extract of Gynandropsis gynandra (GG) at a concentration of 0.02% (w/v of active material) or the reference (20 μM of cerulenin). After incubation, the radioactive label [^14C]-acetate was added and the samples were incubated overnight.
At the end of incubation, the lipids were extracted and the radioactivity incorporated (corresponding to the lipogenesis) was measured by liquid scintillation.
(§1) The results were analyzed statistically by a Student's t-test.

Assay [2] has as its system Mastocytes. The experiment in a line: Release of histamine by mastocytes stimulated by substance P, ELISA. It is filed as cell-based. Conditions: 10 nM Calcium; 10 μM substance P, 15 minutes. How it is done:
Mastocytes were preincubated for 30 minutes in the presence of the extract of Gynandropsis gynandra (GG) at a concentration of 0.08% (w/v of active material) or 10 Mm of calcium (reference inhibitor of histamine release).
The mastocytes were then stimulated with 10 μM of substance P for 15 minutes. At the end of incubation, the histamine released was quantified by ELISA.
as §1

Assay [3] concerns Normal human keratinocytes. Description: Production of ROS in keratinocytes treated with H2O2 (H2DCF-DA probe). It counts as cell-based. Conditions: 10 μg/ml vitamin C, 24 hours, 100 μM H2O2, 20 minutes. How it is done: The keratinocytes were then stimulated with 100 μM of hydrogen peroxide (H2O2) for 20 minutes. The production of reactive oxygen species (ROS) was evaluated by measuring fluorescence. The results were analyzed statistically by a Student's t-test.

The test system of assay [4] is Normal human epidermal melanocytes. Description: Melanin production by melanocytes. It counts as cell-based. As to conditions: 10^−7 M NDP-MSH alone (stimulated control); 240 hours. The procedure: After incubation, melanin was extracted from the cells and was quantified by spectrophotometry.
as §1

Assay [5] deals with Cells of the Jurkat cell line. The experiment in a line: UV-induced lipid peroxidation (flow cytometry). It counts as cell-based. As to conditions: 100 μM BHT; UVA+B irradiation. How it is done:
Cells of the Jurkat cell line were preincubated for 45 minutes in the presence of the extract of Gynandropsis gynandra (GG) at a concentration of 0.02% (w/v of active material) or 100 μM of BHT (reference) and in the presence of the fluorescent probe 011-fluorine, specific for lipid peroxidation.
The cells were then irradiated by UVA+B and then incubated for 30 minutes in the presence of GG or BHT.
At the end of incubation, the quantity of lipid peroxides was evaluated by a flow cytometry analysis of fluorescence intensity (inversely proportional to oxidation).
as §1

For assay [6], the system named is prostaglandin E2 (PGE2). The experiment in a line: Production of PGE2 by PMA-stimulated keratinocytes (NCTC-2544), ELISA. As to conditions: 10^−6 M Indomethacin, 0.1 μg/ml PMA 24 hours. It counts as cell-based, Human. For orientation: An ELISA detects its analyte on a solid surface through an enzyme-linked reagent.
Assay [7] deals with interleukin 8 (IL8). Description: Production of IL8 by PMA-stimulated keratinocytes (NCTC-2544), ELISA. It is filed as cell-based, Human. As to conditions: 10^−7 M Dexamethasone, 0.1 μg/ml PMA 24 hours.
Experimental: At the end of the treatment, the quantities of interleukin 8 (IL8) and prostaglandin E2 (PGE2) secreted were measured by ELISA in the culture supernatants. The results were analyzed statistically by a Student's t-test.
In assay [8] the test system is Normal human keratinocytes. The experiment in a line: Keratinocyte migration after artificial wound. It is filed as cell-based. Conditions: 10 ng/ml of EGF. How it is done:
An artificial wound was prepared on a monolayer of normal human keratinocytes.
At 0, 24, 48 and 72 hours, keratinocyte migration was monitored by microphotography and was quantified by measuring the surface area of the wound.
as §1

For the compound `C/C=C/C/C=C/CCC(=O)[C@H]1O[C@H]1C(N)=O` [cerulenin], the “Incorporation of acetate (cpm)” value in assay [1] turned out to be 14934 ± 671 cpm. In addition, the inhibition – broadly, the share of the control response that was lost under treatment – at 20 µM in assay [1] (Homo sapiens, Adipocyte) stood at 55%.

For the compound `[Ca+2]` [Calcium, calcium], in assay [2], the “Histamine” value was found to be 21.8 ± 1.0 ng/mL and the “Inhibition of histamine release” value was −85% p < 0.01.

In the case of `O=C1O[C@H]([C@@H](O)CO)C(O)=C1O` [vitamin C], the “ROS (fluorescence units)” value in assay [3] is reported as 992.83 ± 93.96 fluorescence units. Further, the inhibition at 10 µg/mL in assay [3] (Homo sapiens, Keratinocyte) amounted to 33%.

NDP-MSH: in assay [4], the “Melanin (μl/ml)” value came out at 27.1 ± 0.9 μl/ml and the “Stimulation of melanin production” value is “+108% p < 0.001”.

In the case of `Cc1cc(C(C)(C)C)c(O)c(C(C)(C)C)c1` [BHT], in assay [5], the “Lipid peroxides (% of irradiated control)” value is reported as 64 % of irradiated control and the “Protection (%)” value is on record as 49% p < 0.01.

For `COc1ccc2c(c1)c(CC(=O)O)c(C)n2C(=O)c1ccc(Cl)cc1` [Indomethacin, indomethacin], the “PGE2” value in assay [6] was found to be 0.039 ± 0.0 ng/mL. In assay [6] (Homo sapiens, NCTC-2544), this compound returned an inhibition at 1 µM of 100%.

Take `C[C@@H]1C[C@H]2[C@@H]3CCC4=CC(=O)C=C[C@]4(C)[C@@]3(F)[C@@H](O)C[C@]2(C)[C@@]1(O)C(=O)CO` [Dexamethasone, dexamethasone]: in assay [7], the “IL8” value was found to be 7.4 ± 0.8 ng/mL. The same compound returned an inhibition at 0.1 µM in assay [7] (Homo sapiens, NCTC-2544) of 85%.

In the case of EGF, the “Migration area (percent of wound covered)” value is recorded as 99 (p < 0.001) percent of wound covered in assay [8] (48 h) and 100 (p < 0.001) percent of wound covered in assay [8] (72 h).

Source of the values: patent US9370541B2, “Extract of the above-ground portions of gynandropsis gynandra or cleome gynandra, and cosmetic, dermatological or pharmaceutical compositions including same” (LABORATOIRES EXPANSCIENCE, priority 2010, dated 2016).
